Measured values published in patent publication US20110152379A1, “COMPOSITION FOR CONTROL OF AGING AND/OR EXTENSION OF LIFE, CONTAINING DAPSONE AS ACTIVE INGREDIENT” (priority 2008, published 2011).

Legend:
[1] = test system: membrane potential of mitochondria; test: Membrane potential of mitochondria, DiOC6 assay; type: cell-based, human
Method: The protein amount of mitochondria constituent complex was measured by using Western Blot using Complex I (20 kDa ND6 subunit), Complex II (30 kDa FeS, non-heme iron protein, SDHB), Complex III (47 kDa core protein 2), Complex IV (18 kDa subunit IV), Complex V (55 kDa subunit a ATP synthase), and the like. […] The membrane potential (Δψm) of mitochondria used DiOC6. […] Since then, the above fibroblast was treated with 40 nM of DiOC6 for 15 minutes. The results were measured by using Cary Eclipse Fluorescence Spectrophotometer (Varian, Calif., USA) and the excitation wavelength and emission wavelength were measured at 480 nm and 520 nm, respectively.
The change of membrane potential (Δψm) of mitochondria was measured by using a cationic dye, DiOC6 that is a specific fluorescent material for mitochondria. An aspect of the change was measured by using Fluorescence Spectrophotometer. The cell was cultured in 40 nM DiQC6 for 15 minutes and then the fluorescent material that was left was removed by using PBS. The analysis was performed by using Cary Eclipse fluorescence spectrophotometer (Varian, Calif., USA), and then the excitation wavelength was measured at 480 nm, and the emission wavelength was measured at 520 nm.

human diploid fibroblast = test: Survival rate of human diploid fibroblast treated with PQ (CCK-8); conditions: 1 mM PQ for 48 hours without any pretreatments
Method: The above cell was cultured by adding Cell Counting Kit-8 for 48 hours and then the survival ability of cell was measured. In addition, DPI (5 uM) was pretreated for 30 minutes and NAC (2 mM) was pretreated for 3 hours, and then 1 mM of PQ was treated as a positive control.
The evaluation of survival rate of cell was performed by using Counting Kit (CCK-8) from Dojindo Laboratory Company (Japan). The human diploid fibroblast was cultured at 96-well plate for 24 hours before treating. […] The absorbance was measured at 450 nm.

[2] = test system: mitochondria superoxide anion; test: Superoxide anion in mitochondria, MitoSOX Red; type: cell-based; conditions: human diploid fibroblast; 1 mM PQ 30 minutes; FIG. 24B
Method: (§1) The cell was treated with 1 mM of PQ for 30 minutes, and then was cultured at 37° C. for 15 minutes after adding oxidant-sensitive fluorescent dyes (A) DHE (5 uM, cytosol specific) and (B) MitoSOX (5 uM, mitochondria specific), respectively. For identifying the change of fluorescence, the excitation and emission wavelength of DHE were measured at 515 and 590 nm and MitoSOX was measured at 520 and 580 nm by using a multiwell plate reader. The results were indicated by calculating the results of three experiments as a control rate (%). The statistical significant was expressed as *, # p<0.005; ** p<0.05.
Mitochondria superoxide anion was measured by using the fluorescence material, i.e., MitoSOX Red. […] The cell was twice washed with DPBS and the fluorescence was immediately measured at excitation wavelength 515 nm and emission wavelength 590 nm by using CEFS [Cary Eclipse fluorescence spectrophotometer (Varian, Calif., USA)] machine.

[3] = test system: cytosolic superoxide anion; test: Superoxide anion in cell (cytoplasm), DHE; type: cell-based; conditions: human diploid fibroblast; 1 mM PQ 30 minutes; FIG. 24A
Method: as §1
The cell was twice washed with DPBS and Ethidium-DNA that fluoresces was immediately measured at excitation wavelength 515 nm and emission wavelength 590 nm by using Cary Eclipse fluorescence spectrophotometer (Varian, Calif., USA) machine.

mitochondria = test: Mitochondria structure staining with MitoTracker Red; type: cell-based, human; conditions: pretreated with DDS or DPI, then 1 mM PQ 24 hours; FIG. 30
Method: The first photograph indicates the stained mitochondria of the non-treated human diploid fibroblast as a control, the second photograph indicates the stained mitochondria of the PQ-treated human diploid fibroblast, the third photograph indicates the stained mitochondria of the human diploid fibroblast that was pretreated with DDS and then was treated with PQ, and the final photograph indicates the stained mitochondria of the human diploid fibroblast that was treated with DPI and PQ together (by using Confocal process). The values of (A, B, C and D: ×4000) is means±SEM (n=3), # is p<0.005 relative CC; and * is p<0.005 relative C.
The human diploid fibroblasts were cultured at 24-well plate. After the above experiment materials, i.e., the human diploid fibroblasts, were pretreated and then were treated with PQ for 24 hours, the above cells were treated with MitoTracker Red CMXRos (50 nM), which is a staining material for mitochondria, at 37° C. for 30 minutes. The dye is a marker of function for marking mitochondria through marking a transmembrane potential of mitochondria in a cell. After culturing, the cells were washed with PBS and then fixed with 4% of paraformaldehyde at 4° C. for overnight. […] After washing, the cells were covered with a cover glass and visualized through a fluorescence microscope.

Escherichia coli OP50 = test: Growth of OP50 bacteria with PABA and DDS; type: cell-based; conditions: PABA 10 uM added with DDS; FIG. 1
Method: FIG. 1 is a graph showing the growth degree of bacteria by treating with PABA. […] In order to identify the effect of dapsone on the extending of lifespan, the experiment was performed in the following order. At this time, since dapsone is not a water-soluble material, E. coli was cultured in the medium including dapsone and then was used as a feed for C. elegans. […] The administration of dapsone was started after L4 stage that almost finishes the generation, and the experiment was performed as follows under the condition of 20° C. in order to provide the optimal growth environment: […]

[4] = DPPH radical scavenging activity in cell-free system; type: biochemical; conditions: 0.1-100 uM; 200 uM DPPH; FIG. 25A
Method: The radical scavenging activity was measured as the reducing power of
DPPH included in methanol. […] DPPH is a stable free radical, has a thick purple color, and its absorbance is at 517 nm. However, if it reacts with an antioxidant, it has a pale yellow color. The reaction mixture was maintained for 30 minutes at a room temperature without light and then the absorbance was measured at 517 nm. The free radical scavenging activity was calculated as the suppression rate by using the following equation:
% suppression=[(Absorbance of Control−Absorbance of Sample)/Control Absorbance]×100.

SMILES: C[n+]1ccc(-c2cc[n+](C)cc2)cc1 [PQ, paraquat]
- membrane potential of mitochondria compared with the control ([1]; human diploid fibroblast, 1 mM PQ for 24 hours): 76.8%
- viability of human diploid fibroblast compared with the non-treated control (human diploid fibroblast): about 58.8%

SMILES: CC(=O)N[C@@H](CS)C(=O)O [NAC, N-acetyl-L-cystein]
- production of superoxide anion in the mitochondria [2]: suppress
- superoxide anion of cytoplasm produced by PQ (DHE assay) [3]: suppressed

SMILES: c1ccc2c(c1)[I+]c1ccccc1-2 [DPI]
- production of superoxide anion in the mitochondria [2]: suppress
- superoxide anion of cytoplasm produced by PQ (DHE assay) [3]: suppressed
- shape of mitochondria after PQ (MitoTracker) (mitochondria): recovered, partially
- decrease of membrane potential induced by PQ ([1]; pretreated with DDS (3 hours) or DPI (30 minutes), then 1 mM PQ 24 hours, FIG. 29B): meaningfully maintained

SMILES: Nc1ccc(C(=O)O)cc1 [PABA, para-aminobenzoic acid]
- growth rate of bacteria relative to control (Escherichia coli OP50): 80%

SMILES: Cc1c(C)c2c(c(C)c1O)CCC(C)(C(=O)O)O2 (stereo not shown) [Trolox]
- activity of removing ROS on DPPH in the test tube [4]: strong activity of removing ROS
